# Values of other authors as cited in patent publication US20020099506A1, “Methods and apparatus for predicting ligand binding interactions” (priority 2000, published 2002).
# “Also recorded” adds a separate entry of the source.
# Experiments:
# olfactory receptor S18 = details: according to Malnic et al.
# [1] = test system: olfactory receptor S25 (OR S25); details: data of Malnic et al.; 24 odorants of 4-9 carbon atoms
SMILES,experimental response of S18 (olfactory receptor S18),other results
O=C(O)CCCCCCCBr [8-bromo-octanoic acid],responds experimentally,
CCCCCCC(=O)O [heptanoic acid],responds experimentally,
CCCCCCCO [heptanol],,experimental odor response of S25 [1]: responds positively; also recorded: elicited measurable responses
CCCCCCO [hexanol],,experimental odor response of S25 [1]: responds positively; also recorded: elicited measurable responses
N[C@@H](Cc1c[nH]cn1)C(=O)O [histidine],,recognition by the enzyme (experimental observations) (histdyl t-RNA synthetase): the only ligand recognized by this enzyme
CCCCCCCCC(=O)O [nonanoic acid],responds experimentally,
CCCCCCCCCO [nonanol],responds experimentally,
CCCCCCCC(=O)O [octanoic acid],responds experimentally,
CCCCCCCCO [octanol],responds experimentally,
